Earlier results in US8858963B1, “Tamper resistant composition comprising hydrocodone and acetaminophen for rapid onset and extended duration of analgesia” (Mallinckrodt LLC, priority 2011, dated 2014).

Test system: hepatic GSH
Details: Swiss mice

**Q.** What does the source list for CC(=O)Nc1ccc(O)cc1 [acetaminophen]?
**A.** onset of circulating hepatic GSH changes after administration (acetaminophen 100 mg/kg to 600 mg/kg): ≤ 15 min; time of minimum GSH level after injection (all dose groups (100 mg/kg to 600 mg/kg)): 2 h
